Reference: patent US20260232767A1, “INTERLEUKIN-23 RECEPTOR ANTAGONIST PEPTIDES FOR USE IN THE TREATMENT OF PSORIASIS” (Janssen Pharmaceutica NV, priority 2023, published 2026)
Where two headings read alike, the source gives them in different places.

Assay: Plasma concentrations (PK), Example 1
Assay type: in vivo, human
Details: for level at 672 h / level at 1344 h / level at 2016 h / level at 2688 h: 100 mg; for level at 672 h: Week 4; for level at 1344 h: Week 8
Description: For QD dosing, peak concentration was defined as any PK sample taken between 0.25 to <6 hours after the last morning dose and trough concentration was at least 20 hours after the last morning dose. For BID dosing, peak concentration was defined as any PK sample taken between 0.25 to <4 hours after the last dose and trough concentration was at least 8 hours after the last dose.

[1] = human, plasma, oral, 100 mg BID, Peak, read-out: Plasma concentration, Mean
[2] = human, plasma, oral, 100 mg BID, Peak, read-out: Plasma concentration, Median
[3] = human, plasma, oral, 100 mg QD, Intermediate, read-out: Plasma concentration, Geometric Mean
[4] = human, plasma, oral, 100 mg QD, Peak, read-out: Plasma concentration, Geometric Mean
[5] = human, plasma, oral, 100 mg QD, Peak, read-out: Plasma concentration, Mean
[6] = human, plasma, oral, 100 mg QD, Peak, read-out: Plasma concentration, Median

For `CC(=O)NCCCC[C@@H]1NC(=O)[C@H](Cc2c[nH]c3c(C)cccc23)NC(=O)[C@H]([C@@H](C)O)NC(=O)[C@H](CC(N)=O)NC(=O)[C@@H](NC(C)=O)C(C)(C)SSC(C)(C)[C@@H](C(=O)N[C@@H](Cc2ccc(OCCN)cc2)C(=O)N[C@@H](Cc2ccc3ccccc3c2)C(=O)NC2(C(=O)N[C@@H](CCC(=O)O)C(=O)N[C@@H](CC(N)=O)C(=O)N[C@@H](Cc3cccnc3)C(=O)N(C)CC(N)=O)CCOCC2)NC1=O` [IL-23 receptor antagonist peptide, Ac-[Pen]*-N-T-[W(7-Me)]-[Lys(Ac)]-[Pen]*-Phe[4-(2-aminoethoxy)]-[2-Nal]-[THP]-E-N-[3-Pal]-Sarc-NH2 (*[Pen]-[Pen]* formdisulfidebond)], the level at 672 h [1] was 2.05 ng/mL, the level at 672 h [2] was 1.84 ng/mL and the level at 1344 h (human, plasma, oral, 100 mg BID, Intermediate, read-out: Plasma concentration, Geometric Mean) was 0.675 ng/mL. It also gave a level at 1344 h (human, plasma, oral, 100 mg BID, Intermediate, read-out: Plasma concentration, Mean) of 1.04 ng/mL, a level at 1344 h (human, plasma, oral, 100 mg BID, Intermediate, read-out: Plasma concentration, Median) of 0.84 ng/mL and a level at 1344 h (human, plasma, oral, 100 mg BID, Peak, read-out: Plasma concentration, Geometric Mean) of 1.86 ng/mL. It also gave a level at 1344 h [1] of 3.55 ng/mL, a level at 1344 h [2] of 1.44 ng/mL and a level at 1344 h (human, plasma, oral, 100 mg BID, Trough, read-out: Plasma concentration, Geometric Mean) of 0.664 ng/mL. It also gave a level at 1344 h (human, plasma, oral, 100 mg BID, Trough, read-out: Plasma concentration, Mean) of 0.961 ng/mL, a level at 1344 h (human, plasma, oral, 100 mg BID, Trough, read-out: Plasma concentration, Median) of 0.744 ng/mL and a level at 2016 h (human, plasma, oral, 100 mg BID, Week 12, Trough, read-out: Plasma concentration, Mean) of 1.1 ng/mL. It also gave a level at 672 h [3] of 0.683 ng/mL, a level at 672 h [4] of 0.968 ng/mL and a level at 672 h [5] of 1.31 ng/mL. The level at 672 h [6] was 1.34 ng/mL, the level at 1344 h [3] was 0.235 ng/mL and the level at 1344 h (human, plasma, oral, 100 mg QD, Intermediate, read-out: Plasma concentration, Mean) was 0.235 ng/mL. For the same molecule, the level at 1344 h (human, plasma, oral, 100 mg QD, Intermediate, read-out: Plasma concentration, Median) was 0.235 ng/mL, the level at 1344 h [4] was 0.892 ng/mL and the level at 1344 h [5] was 1.15 ng/mL. For the same molecule, the level at 1344 h [6] was 0.873 ng/mL, the level at 1344 h (human, plasma, oral, 100 mg QD, Trough, read-out: Plasma concentration, Geometric Mean) was 0.175 ng/mL and the level at 1344 h (human, plasma, oral, 100 mg QD, Trough, read-out: Plasma concentration, Mean) was 0.229 ng/mL. It also gave a level at 1344 h (human, plasma, oral, 100 mg QD, Trough, read-out: Plasma concentration, Median) of 0.149 ng/mL, a level at 2016 h (human, plasma, oral, 100 mg QD, Week 12, Trough, read-out: Plasma concentration, Mean) of 0.355 ng/mL and a level at 2016 h (human, plasma, oral, weight >90 kg, 100 mg BID, Week 12, Intermediate, read-out: Plasma concentration, Geometric Mean) of 0.601 ng/mL. The level at 2016 h (human, plasma, oral, weight >90 kg, 100 mg BID, Week 12, Peak, read-out: Plasma concentration, Geometric Mean) was 2.13 ng/mL, the level at 2016 h (human, plasma, oral, weight >90 kg, 100 mg BID, Week 12, Peak, read-out: Plasma concentration, Mean) was 6.41 ng/mL and the level at 2016 h (human, plasma, oral, weight >90 kg, 100 mg BID, Week 12, Peak, read-out: Plasma concentration, Median) was 1.29 ng/mL. The level at 2688 h (human, plasma, oral, weight >90 kg, 100 mg BID, Week 16, Intermediate, read-out: Plasma concentration, Mean) was 0.724 ng/mL, the level at 2688 h (human, plasma, oral, weight >90 kg, 100 mg BID, Week 16, Trough, read-out: Plasma concentration, Geometric Mean) was 0.522 ng/mL and the level at 2688 h (human, plasma, oral, weight >90 kg, 100 mg BID, Week 16, Trough, read-out: Plasma concentration, Mean) was 0.755 ng/mL. The level at 2688 h (human, plasma, oral, weight >90 kg, 100 mg BID, Week 16, Trough, read-out: Plasma concentration, Median) was 0.428 ng/mL, the level at 2016 h (human, plasma, oral, weight >90 kg, 100 mg QD, Week 12, Intermediate, read-out: Plasma concentration, Geometric Mean) was 0.75 ng/mL and the level at 2016 h (human, plasma, oral, weight >90 kg, 100 mg QD, Week 12, Peak, read-out: Plasma concentration, Geometric Mean) was 1.04 ng/mL. For the same molecule, the level at 2016 h (human, plasma, oral, weight >90 kg, 100 mg QD, Week 12, Peak, read-out: Plasma concentration, Mean) was 1.04 ng/mL, the level at 2016 h (human, plasma, oral, weight >90 kg, 100 mg QD, Week 12, Peak, read-out: Plasma concentration, Median) was 1.09 ng/mL and the level at 2688 h (human, plasma, oral, weight >90 kg, 100 mg QD, Week 16, Intermediate, read-out: Plasma concentration, Mean) was 0.378 ng/mL. The level at 2688 h (human, plasma, oral, weight >90 kg, 100 mg QD, Week 16, Trough, read-out: Plasma concentration, Geometric Mean) was 0.102 ng/mL, the level at 2688 h (human, plasma, oral, weight >90 kg, 100 mg QD, Week 16, Trough, read-out: Plasma concentration, Mean) was 0.11 ng/mL and the level at 2688 h (human, plasma, oral, weight >90 kg, 100 mg QD, Week 16, Trough, read-out: Plasma concentration, Median) was 0.129 ng/mL. For the same molecule, the half-life (human, plasma, oral, read-out: Terminal elimination half-life) was 9 to 12 h and the “Attainment of steady state conditions” value (oral daily dosing) was at most 1 Week.
